# Patent publication US9215868B2, “Low-foam preparations for crop protection” (Bayer Intellectual Property GmbH, priority 2006, dated 2015)
# Tested on: leaves of monocotyledonous crop plants such as corn and dicotyledonous crop plants such as apples
# Test: Leaf penetration of water-soluble leaf fertilisers such as urea
# Format: in vivo
# Conditions: urea 0.1 to 2% in spray liquor, in presence of 0.05 to 1% of one of the alkyl ether sulfates according to the invention; within a number of days
# Source text: In the case of foliar application of urea (0.1 to 2% in the spray liqour) to leaves of monocotyledonous crop plants such as corn and also to dicotyledonous crop plants such as apples, the rate of foliar uptake was increased within a number of days by a factor of at least two in the presence of 0.05 to 1% of one of the alkyl ether sulfates according to the invention.
structure (smiles),measurement,value
NC(N)=O [urea],factor of increase of rate of foliar uptake,at least two
